ChEMBL document CHEMBL1143953, “Novel 2-phenylquinolin-7-yl-derived imidazo[1,5-a]pyrazines as potent insulin-like growth factor-I receptor (IGF-IR) inhibitors” (Bioorg Med Chem, 2008)
pIC50: −log10 of the molar value.

Columns and labels:
Cytochrome P450 3A4 = Cytochrome P450 3A4 (Homo sapiens, UniProt P08684); assay: Inhibition of CYP3A4; format: ADME
[1] = target: T1, Insulin-like growth factor 1 receptor (Homo sapiens, UniProt P08069)
Description: Inhibition of human recombinant full length IGF1R expressed in mouse 3T3 cells

[2] = Inhibition of CDK2/cyclin E
[3] = target: Dual specificity mitogen-activated protein kinase kinase 1 (Homo sapiens, UniProt Q02750); assay: Inhibition of MEK1
[4] = target: Platelet-derived growth factor receptor beta (Homo sapiens, UniProt P09619); assay: Inhibition of PDGFRbeta
[5] = Inhibition of proliferation of human H292 cells; format: functional, cell-based; settings: NCI-H292
[6] = target: Inhibitor of nuclear factor kappa-B kinase subunit beta (Homo sapiens, UniProt O14920); assay: Inhibition of IKK-beta
[7] = Cmax in Sprague-Dawley rat at 50 mg/kg, po; format: ADME, organism-based; design: dose 50 mg/kg, route oral; settings: in vivo
NCI-H358 [8] = assay: Induction of DNA fragmentation in human H358 cells at 10 uM relative to control; format: functional
Mus musculus [9] = assay: Effect on plasma insulin level in CD1 mouse at 25 mg/kg, po after 4 hrs; format: functional
Mus musculus [10] = assay: Increase in blood glucose level in CD1 mouse at 100 mg/kg, po for 14 days; format: functional
[11] = AUC (0 to infinity) in Beagle dog at 5 mg/kg, po; format: ADME, organism-based, Canis lupus familiaris; design: time infinity, dose 5 mg/kg, route oral; settings: plasma
[12] = target: Receptor-type tyrosine-protein kinase FLT3 (Homo sapiens, UniProt P36888); assay: Inhibition of FLT3
[13] = target: Vascular endothelial growth factor receptor 2 (Homo sapiens, UniProt P35968); assay: Inhibition of KDR at 100 uM
Mus musculus [14] = assay: Effect on plasma insulin level in CD1 mouse at 50 mg/kg, po after 4 hrs; format: functional
[15] = target: Tyrosine-protein kinase ABL1 (Homo sapiens, UniProt P00519); assay: Inhibition of Abl
[16] = target: Ribosomal protein S6 kinase beta-1 (Homo sapiens, UniProt P23443); assay: Inhibition of P70S6K
Mus musculus [17] = assay: Effect on plasma insulin level in CD1 mouse at 100 mg/kg, po after 4 hrs; format: functional
NIH3T3 [18] = assay: Inhibition of IGF1-stimulated p70S6K phosphorylation in mouse 3T3 cells; format: functional, cell-based
[19] = target: Proto-oncogene tyrosine-protein kinase Src (Homo sapiens, UniProt P12931); assay: Inhibition of SRC
[20] = Inhibition of CDK1/cyclin B
COLO 205 [21] = assay: Induction of DNA fragmentation in human Colo205 cells at 10 uM relative to control; format: functional
[22] = target: RAC-alpha serine/threonine-protein kinase (Homo sapiens, UniProt P31749); assay: Inhibition of AKT1
NIH3T3 [23] = assay: Antitumor activity in IGFR expressing mouse 3T3 cells xenografted nu/nu CD1 mouse at 25 mg/kg, po administered once daily for 14 days; format: functional; settings: CD1, NIH3T3, 336 h, read-out: TGI
[24] = Inhibition of RON at 100 uM
[25] = Cmax in Beagle dog at 5 mg/kg, po; format: ADME, organism-based, Canis lupus familiaris; design: dose 5 mg/kg, route oral; settings: in vivo
[26] = Induction of DNA fragmentation in human GEO cells at 10 uM relative to control; format: functional
NIH3T3 [27] = assay: Antitumor activity in IGFR expressing mouse 3T3 cells xenografted nu/nu CD1 mouse at 75 mg/kg, po administered once daily for 14 days; format: functional; settings: CD1, NIH3T3, 336 h, read-out: TGI
NIH3T3 [28] = assay: Inhibition of IGF1-stimulated purified AKT phosphorylation in mouse 3T3 cells; format: functional, cell-based
[29] = Plasma concentration in Sprague-Dawley rat at 50 mg/kg, po after 24 hrs; format: ADME, organism-based; design: dose 50 mg/kg, route oral
[30] = target: Tyrosine-protein kinase Fes/Fps (Homo sapiens, UniProt P07332); assay: Inhibition of FES
[31] = target: Mitogen-activated protein kinase 1 (Mus musculus) (UniProt P63085); assay: Inhibition of IGF1-stimulated purified ERK2 phosphorylation in mouse 3T3 cells; format: cell-based; settings: NIH3T3
[32] = Clearance in Sprague-Dawley rat at 1 mg/kg, iv; format: ADME, organism-based; design: dose 1 mg/kg, route intravenous; settings: in vivo
[33] = Volume of distribution at steady state in CD1 mouse at 5 mg/kg, iv; format: ADME, organism-based; design: dose 5 mg/kg, route intravenous; settings: in vivo, read-out: Vdss
[34] = Clearance in CD1 mouse at 5 mg/kg, iv; format: ADME, organism-based; design: dose 5 mg/kg, route intravenous; settings: in vivo
[35] = target: Mitogen-activated protein kinase 10 (Homo sapiens, UniProt P53779); assay: Inhibition of JNK3
[36] = Oral bioavailability in CD1 mouse at 25 mg/kg; format: ADME, organism-based; settings: in vivo
NIH3T3 [37] = assay: Inhibition of IGF1-stimulated purified ERK1 phosphorylation in mouse 3T3 cells; format: functional, cell-based
[38] = target: Rho-associated protein kinase 2 (Homo sapiens, UniProt O75116); assay: Inhibition of Rock2
[39] = Oral bioavailability in Beagle dog at 5 mg/kg; format: ADME, organism-based, Canis lupus familiaris; settings: in vivo
[40] = target: Tyrosine-protein kinase Fyn (Homo sapiens, UniProt P06241); assay: Inhibition of FYN
[41] = AUC (0 to infinity) in Sprague-Dawley rat at 50 mg/kg, po; format: ADME, organism-based; design: dose 50 mg/kg, route oral, time infinity; settings: plasma
NIH3T3 [42] = assay: Inhibition of IGF1-induced proliferation of human IGF1R expressing mouse 3T3 cells; format: functional, cell-based
[43] = Plasma concentration in Beagle dog at 5 mg/kg, po after 24 hrs; format: ADME, organism-based, Canis lupus familiaris; design: dose 5 mg/kg, route oral
[44] = target: Fibroblast growth factor receptor 3 (Homo sapiens, UniProt P22607); assay: Inhibition of FGFR3
[45] = Cmax in CD1 mouse at 25 mg/kg, po; format: ADME, organism-based; design: dose 25 mg/kg, route oral; settings: in vivo
[46] = Inhibition of proliferation of human Colo699 cells; format: functional; settings: COLO 699
[47] = Inhibition of proliferation of human GEO cells; format: functional, cell-based
Mus musculus [48] = assay: Increase in glucose level in CD1 mouse at 100 mg/kg, po 2 hrs after glucose challenge; format: functional
Focal adhesion kinase 1 = Focal adhesion kinase 1 (Homo sapiens, UniProt Q05397); assay: Inhibition of FAK
HT-29 [49] = assay: Inhibition of proliferation of human HT29 cells; format: functional, cell-based
[50] = Half life in CD1 mouse at 5 mg/kg, iv; format: ADME, organism-based; design: dose 5 mg/kg, route intravenous; settings: in vivo
[51] = Induction of DNA fragmentation in human H292 cells at 10 uM relative to control; format: functional
[52] = Oral bioavailability in Sprague-Dawley rat at 50 mg/kg; format: ADME, organism-based; settings: in vivo
[53] = Half life in Sprague-Dawley rat at 1 mg/kg, iv; format: ADME, organism-based; design: dose 1 mg/kg, route intravenous; settings: in vivo
[54] = AUC (0 to infinity) in CD1 mouse at 25 mg/kg, po; format: ADME, organism-based; design: time infinity, dose 25 mg/kg, route oral; settings: plasma
Aurora kinase A = Aurora kinase A (Homo sapiens, UniProt O14965); assay: Inhibition of AuroraA
Mus musculus [55] = assay: Effect on blood glucose level in CD1 mouse at 25 mg/kg, po for 14 days; format: functional
[56] = target: RAF proto-oncogene serine/threonine-protein kinase (Homo sapiens, UniProt P04049); assay: Inhibition of cRaf
[57] = Clearance in Beagle dog at 2.5 mg/kg, iv; format: ADME, organism-based, Canis lupus familiaris; design: dose 2.5 mg/kg, route intravenous; settings: in vivo
[58] = target: T1, Insulin-like growth factor 1 receptor; assay: Inhibition of human recombinant full length IGF1R
HT-29 [59] = assay: Induction of DNA fragmentation in human HT29 cells at 10 uM relative to control; format: functional
[60] = Inhibition of CDK2/cyclin A
[61] = Volume of distribution at steady state in Sprague-Dawley rat at 1 mg/kg, iv; format: ADME, organism-based; design: dose 1 mg/kg, route intravenous; settings: in vivo, read-out: Vdss
Insulin receptor = Insulin receptor (Homo sapiens, UniProt P06213); assay: Inhibition of human purified insulin receptor in biochemical assay at 100 uM ATP
[62] = Inhibition of PKA
[63] = Induction of DNA fragmentation in human Colo699 cells at 10 uM relative to control; format: functional
NIH3T3 [64] = assay: Antiproliferative activity against human IGF1R expressing mouse 3T3 cells; format: functional, cell-based
COLO 205 [65] = assay: Inhibition of proliferation of human Colo205 cells; format: functional, cell-based
NCI-H358 [66] = assay: Inhibition of proliferation of human H358 cells; format: functional, cell-based
[67] = target: Casein kinase II subunit alpha (Homo sapiens, UniProt P68400); assay: Inhibition of CK2
[68] = Half life in Beagle dog at 2.5 mg/kg, iv; format: ADME, organism-based, Canis lupus familiaris; design: dose 2.5 mg/kg, route intravenous; settings: in vivo
[69] = Volume of distribution at steady state in Beagle dog at 2.5 mg/kg, iv; format: ADME, organism-based, Canis lupus familiaris; design: dose 2.5 mg/kg, route intravenous; settings: in vivo, read-out: Vdss
[70] = Plasma concentration in CD1 mouse at 25 mg/kg, po after 24 hrs; format: ADME, organism-based; design: dose 25 mg/kg, route oral
Mus musculus [71] = assay: Increase in blood glucose level in CD1 mouse at 50 mg/kg, po for 14 days; format: functional
[72] = target: Protein kinase C alpha type (Homo sapiens, UniProt P17252); assay: Inhibition of PKCalpha

T1 sequence (P08069 31-736 limits assumed): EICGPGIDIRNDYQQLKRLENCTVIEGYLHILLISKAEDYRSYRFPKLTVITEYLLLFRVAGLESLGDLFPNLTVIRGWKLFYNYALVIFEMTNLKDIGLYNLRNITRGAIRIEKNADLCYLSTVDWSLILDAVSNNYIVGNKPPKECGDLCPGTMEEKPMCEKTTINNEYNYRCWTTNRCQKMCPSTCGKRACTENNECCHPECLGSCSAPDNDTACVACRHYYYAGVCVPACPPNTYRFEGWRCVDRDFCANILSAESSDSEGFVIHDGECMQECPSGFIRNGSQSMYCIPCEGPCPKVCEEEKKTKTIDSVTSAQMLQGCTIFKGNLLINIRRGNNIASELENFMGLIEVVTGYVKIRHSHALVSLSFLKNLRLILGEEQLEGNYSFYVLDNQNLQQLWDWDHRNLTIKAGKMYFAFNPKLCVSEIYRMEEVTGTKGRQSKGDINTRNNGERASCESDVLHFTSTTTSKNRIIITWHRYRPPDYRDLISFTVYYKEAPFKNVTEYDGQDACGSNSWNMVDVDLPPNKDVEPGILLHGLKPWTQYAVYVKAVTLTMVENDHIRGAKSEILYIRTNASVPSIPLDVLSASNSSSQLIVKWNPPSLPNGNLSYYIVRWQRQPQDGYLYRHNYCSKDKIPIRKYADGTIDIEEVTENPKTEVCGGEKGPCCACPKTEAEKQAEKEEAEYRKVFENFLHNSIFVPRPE
T1 sequence (P08069 741-1367 limits assumed): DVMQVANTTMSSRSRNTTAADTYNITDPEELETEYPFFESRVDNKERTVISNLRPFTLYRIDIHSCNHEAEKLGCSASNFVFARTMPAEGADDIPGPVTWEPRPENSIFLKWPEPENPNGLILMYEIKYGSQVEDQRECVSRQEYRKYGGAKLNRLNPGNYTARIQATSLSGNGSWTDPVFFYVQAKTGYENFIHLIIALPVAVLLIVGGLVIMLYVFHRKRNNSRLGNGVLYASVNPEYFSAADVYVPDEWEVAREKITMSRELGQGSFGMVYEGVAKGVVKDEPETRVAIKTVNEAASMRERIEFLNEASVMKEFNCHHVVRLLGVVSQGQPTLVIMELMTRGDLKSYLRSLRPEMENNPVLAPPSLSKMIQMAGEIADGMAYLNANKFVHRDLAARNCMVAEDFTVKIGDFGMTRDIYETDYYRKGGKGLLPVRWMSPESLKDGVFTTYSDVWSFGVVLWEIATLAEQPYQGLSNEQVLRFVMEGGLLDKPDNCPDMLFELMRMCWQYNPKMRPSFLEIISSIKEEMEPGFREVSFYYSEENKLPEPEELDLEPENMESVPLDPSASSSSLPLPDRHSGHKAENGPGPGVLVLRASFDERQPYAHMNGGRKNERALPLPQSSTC
Chain of Cytochrome P450 3A4 (P08684 whole entry): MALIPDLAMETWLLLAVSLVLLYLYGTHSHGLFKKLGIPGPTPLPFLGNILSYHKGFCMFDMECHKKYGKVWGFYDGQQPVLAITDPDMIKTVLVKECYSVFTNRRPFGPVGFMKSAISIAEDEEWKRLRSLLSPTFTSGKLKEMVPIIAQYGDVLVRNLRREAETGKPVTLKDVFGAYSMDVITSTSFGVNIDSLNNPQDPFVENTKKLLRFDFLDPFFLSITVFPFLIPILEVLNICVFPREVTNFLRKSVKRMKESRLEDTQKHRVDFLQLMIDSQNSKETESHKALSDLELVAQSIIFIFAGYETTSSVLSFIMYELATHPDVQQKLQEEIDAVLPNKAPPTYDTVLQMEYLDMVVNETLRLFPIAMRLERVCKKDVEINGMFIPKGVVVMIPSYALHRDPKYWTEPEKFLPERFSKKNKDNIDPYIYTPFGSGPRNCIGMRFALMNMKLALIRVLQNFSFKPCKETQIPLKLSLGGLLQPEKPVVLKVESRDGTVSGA
Chain of Rho-associated protein kinase 2 (O75116 whole entry): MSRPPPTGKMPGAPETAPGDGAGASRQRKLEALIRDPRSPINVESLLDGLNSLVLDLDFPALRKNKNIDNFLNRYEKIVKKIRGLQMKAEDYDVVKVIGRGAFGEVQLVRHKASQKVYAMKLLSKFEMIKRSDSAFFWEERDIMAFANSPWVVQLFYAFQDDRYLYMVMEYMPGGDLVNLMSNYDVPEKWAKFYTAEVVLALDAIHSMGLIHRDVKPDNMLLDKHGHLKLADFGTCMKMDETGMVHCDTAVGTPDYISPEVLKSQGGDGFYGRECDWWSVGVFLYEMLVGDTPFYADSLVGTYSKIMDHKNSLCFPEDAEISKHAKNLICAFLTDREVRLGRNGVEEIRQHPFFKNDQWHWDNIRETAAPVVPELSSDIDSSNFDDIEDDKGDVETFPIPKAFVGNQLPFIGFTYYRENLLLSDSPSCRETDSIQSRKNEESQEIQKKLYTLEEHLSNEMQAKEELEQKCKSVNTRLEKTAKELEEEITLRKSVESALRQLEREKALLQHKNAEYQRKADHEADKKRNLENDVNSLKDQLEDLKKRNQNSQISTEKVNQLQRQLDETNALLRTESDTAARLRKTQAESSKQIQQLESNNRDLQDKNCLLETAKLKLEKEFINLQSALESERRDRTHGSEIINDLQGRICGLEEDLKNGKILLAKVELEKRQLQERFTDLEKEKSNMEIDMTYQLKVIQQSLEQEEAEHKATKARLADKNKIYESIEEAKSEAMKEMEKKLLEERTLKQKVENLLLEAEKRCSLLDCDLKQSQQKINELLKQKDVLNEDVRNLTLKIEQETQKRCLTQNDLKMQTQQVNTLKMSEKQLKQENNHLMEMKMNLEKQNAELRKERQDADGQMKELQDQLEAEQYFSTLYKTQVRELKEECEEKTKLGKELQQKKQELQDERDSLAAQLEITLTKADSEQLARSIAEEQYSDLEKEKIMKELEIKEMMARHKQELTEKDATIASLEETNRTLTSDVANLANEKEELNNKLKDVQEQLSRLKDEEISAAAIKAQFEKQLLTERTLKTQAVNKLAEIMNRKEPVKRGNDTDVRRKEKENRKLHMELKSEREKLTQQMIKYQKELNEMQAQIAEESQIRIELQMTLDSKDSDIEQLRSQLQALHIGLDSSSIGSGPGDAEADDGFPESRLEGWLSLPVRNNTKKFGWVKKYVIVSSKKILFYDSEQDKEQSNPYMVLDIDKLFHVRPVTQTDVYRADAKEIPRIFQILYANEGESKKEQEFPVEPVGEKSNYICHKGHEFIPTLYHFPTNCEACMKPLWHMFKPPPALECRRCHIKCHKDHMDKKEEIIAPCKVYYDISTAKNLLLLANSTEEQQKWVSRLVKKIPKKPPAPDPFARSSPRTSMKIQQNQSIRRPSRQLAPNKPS
Chain of RAF proto-oncogene serine/threonine-protein kinase (P04049 whole entry): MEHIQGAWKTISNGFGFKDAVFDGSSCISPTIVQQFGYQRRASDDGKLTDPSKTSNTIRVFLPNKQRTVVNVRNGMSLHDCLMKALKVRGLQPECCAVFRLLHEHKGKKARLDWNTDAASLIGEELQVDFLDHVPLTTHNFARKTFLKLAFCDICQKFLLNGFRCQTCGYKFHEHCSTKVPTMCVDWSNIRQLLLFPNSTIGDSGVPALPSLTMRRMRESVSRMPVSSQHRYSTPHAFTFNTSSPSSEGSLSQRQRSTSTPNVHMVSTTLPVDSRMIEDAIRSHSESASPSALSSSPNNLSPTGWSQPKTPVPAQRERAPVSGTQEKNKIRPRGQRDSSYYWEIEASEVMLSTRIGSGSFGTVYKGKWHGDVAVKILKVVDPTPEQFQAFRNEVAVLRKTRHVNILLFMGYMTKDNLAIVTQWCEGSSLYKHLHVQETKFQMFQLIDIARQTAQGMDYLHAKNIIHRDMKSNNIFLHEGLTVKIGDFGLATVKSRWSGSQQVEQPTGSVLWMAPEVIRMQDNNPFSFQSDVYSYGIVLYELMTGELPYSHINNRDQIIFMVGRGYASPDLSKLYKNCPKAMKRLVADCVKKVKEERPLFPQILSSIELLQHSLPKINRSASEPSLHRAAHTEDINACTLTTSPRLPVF
Chain of Aurora kinase A (O14965 whole entry): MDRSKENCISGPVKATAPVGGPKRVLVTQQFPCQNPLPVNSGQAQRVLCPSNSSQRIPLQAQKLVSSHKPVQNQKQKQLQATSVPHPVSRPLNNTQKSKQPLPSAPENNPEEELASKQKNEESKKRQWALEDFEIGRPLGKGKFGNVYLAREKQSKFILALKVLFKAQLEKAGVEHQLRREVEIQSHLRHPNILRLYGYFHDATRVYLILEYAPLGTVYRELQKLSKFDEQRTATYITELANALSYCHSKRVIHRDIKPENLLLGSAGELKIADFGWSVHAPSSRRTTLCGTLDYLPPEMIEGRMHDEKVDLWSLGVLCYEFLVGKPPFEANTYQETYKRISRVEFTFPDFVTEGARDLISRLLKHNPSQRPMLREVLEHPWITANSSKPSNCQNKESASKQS

Nc1nccn2c1c(-c1ccc3ccc(-c4ccccc4)nc3c1)nc2[C@H]1C[C@@H](N2CCCCC2)C1
pIC50 (Cytochrome P450 3A4): 5.12

Nc1nccn2c1c(-c1ccc3ccc(-c4ccccc4)nc3c1)nc2[C@H]1C[C@H](CN2CCC2)C1
pIC50 (Cytochrome P450 3A4): 4.77
pIC50 [1]: 7.38

Nc1nccn2c1c(-c1ccc3ccc(-c4ccccc4)nc3c1)nc2[C@H]1C[C@@H](CN2CCC2)C1
pIC50 [2]: < 5.00
pIC50 [3]: < 5.00
pIC50 [4]: < 5.00
pIC50 [5]: 5.71
pIC50 [6]: < 5.00
Cmax [7]: 1600 nM
Activity (NCI-H358 [8]): 2.7
Activity (Mus musculus [9]): 13.1 ng/mL
Activity (Mus musculus [10]): 75%
AUC(0-inf) [11]: 3010 ng·h/mL
pIC50 [12]: < 5.00
pIC50 [13]: 5.37
Activity (Mus musculus [14]): 14.7 ng/mL
pIC50 [15]: < 5.00
pIC50 [16]: < 5.00
Activity (Mus musculus [17]): 27 ng/mL
Activity (NIH3T3 [18]): Dose-dependent effect
pIC50 [19]: < 5.00
pIC50 [20]: < 5.00
Activity (COLO 205 [21]): 0.8
pIC50 [22]: < 5.00
inhibition in vivo at 25 mg/kg (NIH3T3 [23]): 92%
pIC50 [24]: 5.23
Cmax [25]: 170 nM
Activity [26]: 4
inhibition in vivo at 75 mg/kg (NIH3T3 [27]): > 100%
Activity (NIH3T3 [28]): Dose-dependent effect
concentration at 24 h [29]: 900 nM
pIC50 [30]: < 5.00
Activity [31]: Dose-dependent effect
clearance [32]: 10 mL/min/kg
Vd [33]: 10 L/kg
clearance [34]: 24 mL/min/kg
pIC50 [35]: < 5.00
bioavailability [36]: 100%
Activity (NIH3T3 [37]): Dose-dependent effect
pIC50 [38]: < 5.30
bioavailability [39]: 94%
pIC50 [40]: < 5.00
AUC(0-inf) [41]: 37400 ng·h/mL
pIC50 (NIH3T3 [42]): 7.30
concentration at 24 h [43]: 90 nM
pIC50 [44]: < 5.00
Cmax [45]: 3400 nM
pIC50 [46]: 6.16
pIC50 (Cytochrome P450 3A4): < 4.70
pIC50 [47]: 6.57
Activity (Mus musculus [48]): 44%
pIC50 (Focal adhesion kinase 1): < 5.00
pIC50 (HT-29 [49]): 5.90
half-life [50]: 5.1 h
Activity [51]: 51
bioavailability [52]: 38%
half-life [53]: 19.9 h
AUC(0-inf) [54]: 25600 ng·h/mL
pIC50 (Aurora kinase A): < 5.00
Activity (Mus musculus [55]): -2.9%
pIC50 [1]: 7.70
pIC50 [56]: < 5.00
clearance [57]: 30 mL/min/kg
pIC50 [58]: 7.46
Activity (HT-29 [59]): 46
pIC50 [60]: < 5.00
Vd [61]: 14 L/kg
pIC50 (Insulin receptor): 7.12
pIC50 [62]: < 5.00
Activity [63]: 16
pIC50 (NIH3T3 [64]): 7.30
pIC50 (COLO 205 [65]): 6.03
pIC50 (NCI-H358 [66]): 5.53
pIC50 [67]: < 5.00
half-life [68]: 19 h
Vd [69]: 50 L/kg
concentration at 24 h [70]: 400 nM
Activity (Mus musculus [71]): 18%
pIC50 [72]: < 5.00
